Laboratory results as given in patent US9290461B2, “Crystalline modifications of prothioconazole” (ADAMA MAKHTESHIM LTD, priority 2008, dated 2016).

Assays:
[1] = Solubility in water, Shake Flask Method (OECD Guideline 105); format: physicochemical; conditions: 20° C., buffered at pH 7, Shake Flask Method (OECD Guideline 105)
Method: The following solubilities were measured in water, 20° C., buffered at pH 7, using the Shake Flask Method (OECD Guideline 105): […]

[2] = at room temperature; cited from earlier work

For `OC(Cc1ccccc1Cl)(Cn1nc[nH]c1=S)C1(Cl)CC1` (racemic) [Form II, 2-[(2RS)-2-(1-chlorocyclopropyl)-3-(2-chlorophenyl)-2-hydroxypropyl]-2H-1,2,4-triazole-3(4H)-thione], the solubility in water [1] is listed as 15 ppm and the “thermodynamic stability of the crystalline form” value [2] is listed as “thermodynamically stable at room temperature”.

With `OC(Cc1ccccc1Cl)(Cn1nc[nH]c1=S)C1(Cl)CC1` (stereo not drawn) [Amorphous, prothioconazole] the solubility in water [1] was 34 ppm.

In the case of `OC(Cc1ccccc1Cl)(Cn1nc[nH]c1=S)C1(Cl)CC1` (racemic) [Form I, 2-[(2RS)-2-(1-chlorocyclopropyl)-3-(2-chlorophenyl)-2-hydroxypropyl]-2H-1,2,4-triazole-3(4H)-thione], the solubility in water [1] is given as 28 ppm and the “thermodynamic stability of the crystalline form” value [2] is given as “metastable at room temperature”.

Molecule `OC(Cc1ccccc1Cl)(Cn1nc[nH]c1=S)C1(Cl)CC1` (stereo not drawn) [DMSO Solvate, prothioconazole] has a solubility in water [1] of 30 ppm.
